Assay results as given in patent US9994525B2, “H3 antagonists containing phenoxypiperidine core structure” (RICHTER GEDEON NYRT., priority 2013, dated 2018).
Structures can show the parent of a compound that is named as a salt.

Legend:
[1] = cited from earlier work
[2] = biological target: hERG potassium channel (Homo sapiens (Human), UniProt Q12809); settings: cited from earlier work
[3] = biological target: rat histamine H3 receptors (Rattus norvegicus (Rat), UniProt Q9QYN8); assay: rat histamine H3 receptor in vitro binding assay, N-α-[Methyl-3H]methylhistamine radioligand, rat cortex membrane; settings: 1 nM radioligand, read-out: rH3 Ki
Protocol: The in vitro affinity of the compounds of the present invention for rat histamine H3 receptors can be determined according to the following procedure.
The rat histamine H3 receptor membrane was prepared as previously described by Witte et al. (British Journal of Pharmacol. 1-14, 2006). Male Sprague-Dawley rats were decapitated, their brains were removed and the cortex was isolated. The obtained tissues were homogenized in Tris-EDTA buffer (50 mM Tris-HCl, pH 7.4, 5 mM EDTA, 2 aprotinin, 1 mM benzamidine, 2 μg/ml leupeptin, 1 pepstatin) by a blender homogenizer (Ultra-Turrax). The homogenate was centrifuged at 40000 g for 20 min at 4° C. The membrane pellets were further purified by repeating the above homogenization and centrifugation steps. Final membrane preparations were obtained by rehomogenizing the pellets in 1:10 ratio in Tris-EDTA buffer (50 mM Tris-HCl, pH 7.4, 5 mM EDTA). The so obtained membrane preparation was divided into aliquots, flash frozen and stored at −80° C. until use. Protein content was determined by Lowry method using bovine serum albumin (BSA) as standard.
Receptor binding assays were performed in at least 5 concentrations, with two parallel samples in each concentrations, in at least two independent experiments using the binding buffer (50 mM Tris-HCl, pH 7.4, 5 mM MgCl2), rat H3 membrane (140 μg protein/tube), and N-α-[Methyl-^3H]methylhistamine dihydrochloride (1 nM) as radioligand. Non-specific binding was determined in the presence of 10 μM thioperamide. The samples were incubated in a final volume of 0.50 ml for 30 min at 25° C. Binding reactions were terminated by rapid filtration through UniFilter® GF/B™ fiber glass filters presoaked for at least 2 h in 0.5% polyethylene imine (PEI). The filterplates were washed nine times with 0.5 ml of ice-cold washing buffer (50 mM Tris-HCl, pH 7.4, 5 mM MgCl2, 10 μg/ml saponine). The filterplates were dried at 50° C. for 45 min and 40 μl of Microscint20 (Packard) scintillation cocktail was added to each well. Filters radioactivity was determined by TopCount (Packard) scintillation counter.
The ligand displacement by the compounds of the present invention was determined in at least two parallel experiments. The specific radioligand binding was defined as the difference between the total binding and the non-specific binding determined in the presence of excess of unlabelled ligand or test compounds used to specifically displace the radioligand. Results were expressed as a percent inhibition of specific binding obtained in the presence of test compounds. IC50 values were calculated from concentration-displacement curves by sigmoidal fitting using GraphPad Prism Software 4.0. Inhibition constants (Ki values) were calculated using the Cheng-Prusoff equation (Cheng Y C and Prusoff W H (1973) Biochem Pharmacol 22:3099-3108).
The affinity at rat H3 receptors of compounds of the present invention is illustrated by the following table.

[4] = system: extracellular histamine (HA) levels; assay: cerebral microdialysis, extracellular histamine (HA) levels in prefrontal cortex and hippocampus; assay type: in vivo, male Wistar rats; settings: rats
From the text: (§1) Prefrontal cortex and hippocampus, the two brain regions play important roles in cognition processes. Both histamine (HA) and acetylcholine (ACh) are transmitters playing important roles in cognition. The hypofunction of the central cholinergic and histaminergic systems is considered one of the pathogenic causes of the cognitive deficits characterizing dementias. Alterations in the extracellular levels of HA and ACh were investigated after single and simultaneous treatment with histamine H3 antagonists and acetylcholine esterase inhibitors (AChEIs) in the prefrontal cortex and hippocampus of conscious, freely moving male Wistar rats (4-6 animals/group) by cerebral microdialysis technique.
(§2) Microdialysis probes were implanted in the medial prefrontal cortex (MPFC) and hippocampus (HC), and perfused with artificial AChEI-free cerebrospinal fluid (aCSF). Compounds examined in the present study were administered in 1% hydroxypropyl-methylcellulose (HPMC) and 5% polyoxiethelen(8)-sorbitane-monooleat (Tween 80) into the stomach via surgically implanted catheter.
(§3) Thirty-min samples were collected and the temporal changes in the extracellular ACh and histamine HA were followed by high-sensitivity and selectivity liquid chromatography coupled with mass spectrometry/mass spectrometry (LC-MS/MS) analytical method. […]

[5] = system: extracellular acetylcholine (ACh) levels; assay: cerebral microdialysis, extracellular acetylcholine (ACh) levels in prefrontal cortex and hippocampus; assay type: in vivo, male Wistar rats; settings: rats
From the text: as §1, §2, §3

[6] = rat, in vivo
[7] = single treatment, 0.5 and 1 mg/kg into the stomach, MPFC and HC

rat histamine H3 receptors, sequence (Q9QYN8 whole entry): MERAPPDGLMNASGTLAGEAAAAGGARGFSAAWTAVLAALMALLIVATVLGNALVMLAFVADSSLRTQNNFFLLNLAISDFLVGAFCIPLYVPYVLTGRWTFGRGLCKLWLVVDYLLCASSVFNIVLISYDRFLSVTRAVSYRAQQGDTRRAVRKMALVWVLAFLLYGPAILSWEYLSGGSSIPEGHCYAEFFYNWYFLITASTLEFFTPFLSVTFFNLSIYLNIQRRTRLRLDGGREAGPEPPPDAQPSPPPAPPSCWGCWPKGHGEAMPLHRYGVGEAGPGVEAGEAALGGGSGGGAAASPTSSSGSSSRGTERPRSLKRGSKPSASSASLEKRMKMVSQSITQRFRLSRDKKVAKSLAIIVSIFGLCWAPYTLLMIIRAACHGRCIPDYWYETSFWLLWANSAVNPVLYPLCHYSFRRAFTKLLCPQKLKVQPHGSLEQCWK
hERG potassium channel, sequence (Q12809 whole entry): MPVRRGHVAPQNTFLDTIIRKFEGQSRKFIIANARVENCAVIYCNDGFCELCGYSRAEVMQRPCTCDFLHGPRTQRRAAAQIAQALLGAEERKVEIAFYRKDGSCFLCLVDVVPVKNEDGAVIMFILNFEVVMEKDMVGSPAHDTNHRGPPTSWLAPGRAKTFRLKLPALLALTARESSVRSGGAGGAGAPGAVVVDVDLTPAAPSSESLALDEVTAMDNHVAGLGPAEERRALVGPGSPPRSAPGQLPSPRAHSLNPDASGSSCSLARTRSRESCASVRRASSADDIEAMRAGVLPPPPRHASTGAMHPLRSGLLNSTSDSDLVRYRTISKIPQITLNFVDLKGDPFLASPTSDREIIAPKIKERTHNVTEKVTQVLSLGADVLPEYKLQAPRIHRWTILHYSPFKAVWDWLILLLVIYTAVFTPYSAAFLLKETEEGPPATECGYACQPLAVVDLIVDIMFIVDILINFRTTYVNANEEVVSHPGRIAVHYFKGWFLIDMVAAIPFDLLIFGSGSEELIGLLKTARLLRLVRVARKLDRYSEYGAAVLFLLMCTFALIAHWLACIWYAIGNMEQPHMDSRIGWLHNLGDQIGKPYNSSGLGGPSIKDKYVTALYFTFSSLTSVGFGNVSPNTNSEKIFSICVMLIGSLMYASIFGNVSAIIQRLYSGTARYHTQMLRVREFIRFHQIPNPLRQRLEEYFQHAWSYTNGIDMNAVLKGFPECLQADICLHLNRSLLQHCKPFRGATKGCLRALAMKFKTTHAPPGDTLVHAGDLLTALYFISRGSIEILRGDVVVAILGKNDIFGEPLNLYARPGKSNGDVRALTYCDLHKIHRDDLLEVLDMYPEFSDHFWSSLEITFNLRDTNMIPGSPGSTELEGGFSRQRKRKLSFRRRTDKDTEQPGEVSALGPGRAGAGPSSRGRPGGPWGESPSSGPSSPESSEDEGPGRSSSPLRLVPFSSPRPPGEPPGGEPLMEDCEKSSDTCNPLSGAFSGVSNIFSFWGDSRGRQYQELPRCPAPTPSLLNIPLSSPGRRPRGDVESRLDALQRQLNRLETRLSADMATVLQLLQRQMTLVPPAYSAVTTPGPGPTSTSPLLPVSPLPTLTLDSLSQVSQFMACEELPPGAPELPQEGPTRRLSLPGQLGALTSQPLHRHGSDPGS

| Compound | Ki [3] [nM] | further results |
| --- | --- | --- |
| C[C@@H]1CCCN1CCc1cc2cc(-c3ccc(C#N)cc3)ccc2o1 [ABT-239] | – | plasma protein binding [1]: High; cardiovascular side-effects, interaction with the hERG potassium channel [2]: interaction with the hERG potassium channel |
| CC(C)(C)OC(=O)N1CCC(Oc2ccc(OCCCN3CCCCC3)cc2)CC1 [Example 1, 4-{4-[3-(piperidin-1-yl)-propoxy]-phenoxy}-piperidine-1-carboxylic acid tert-butyl ester] | 10 to 50 | – |
| c1cc(OC2CCNCC2)ccc1OCCCN1CCCCC1 [Example 2, 1-{3-[4-(piperidin-4-yl-oxy)-phenoxy]-propyl}-piperidine dihydrochloride salt] | 10 to 50 | – |
| CC(=O)N1CCC(Oc2ccc(OCCCN3CCCCC3)cc2)CC1 [Example 3, 1-(4-{4-[3-(piperidin-1-yl)-propoxy]-phenoxy}-piperidin-1-yl)-ethanone hydrochloride salt] | < 10 | – |
| O=C(C1CCC1)N1CCC(Oc2ccc(OCCCN3CCCCC3)cc2)CC1 [Example 4, Cyclobutyl-(4-{4-[3-(piperidin-1-yl)-propoxy]-phenoxy}-piperidin-1-yl)-methanone hydrochloride salt] | 10 to 50 | – |
| CC1(C(=O)N2CCC(Oc3ccc(OCCCN4CCCCC4)cc3)CC2)CC1 [Example 5, (1-methyl-cyclopropyl)-(4-{4-[3-(piperidin-1-yl)-propoxy]-phenoxy}-piperidin-1-yl)-methanon hydrochloride salt] | < 10 | – |
| CCOC(=O)N1CCC(Oc2ccc(OCCCN3CCCCC3)cc2)CC1 [Example 6, Ethyl-4-{4-[3-(piperidin-1-yl)-propoxy]-phenoxy}-piperidine-1-carboxylate hydrochloride salt] | 10 to 50 | – |
| CCNC(=O)N1CCC(Oc2ccc(OCCCN3CCCCC3)cc2)CC1 [Example 7, N-ethyl-4-{4-[3-(piperidin-1-yl)-propoxy]-phenoxy}-piperidine-1-carboxamide] | 10 to 50 | – |
| CCN(C)C(=O)N1CCC(Oc2ccc(OCCCN3CCCCC3)cc2)CC1 [Example 8, N-ethyl-N-methyl-4-{4-[3-(piperidin-1-yl)-propoxy]-phenoxy}-piperidine-1-carboxamide hydrochloride salt] | 10 to 50 | – |
| C[C@@H]1CCCN1CCCOc1ccc(OC2CCN(C(=O)OC(C)(C)C)CC2)cc1 [Example 9, 4-(4-{3-[(2R)-2-methyl-pyrrolidin-1-yl]-propoxy}-phenoxy)-piperidine-1-carboxylic acid tert-butyl ester] | 10 to 50 | – |
| C[C@@H]1CCCN1CCCOc1ccc(OC2CCNCC2)cc1 [Example 10, 4-(4-{3-[(2R)-2-methyl-pyrrolidin-1-yl]-propoxy}-phenoxy)-piperidine dihydrochloride salt] | < 10 | – |
| CC(=O)N1CCC(Oc2ccc(OCCCN3CCC[C@H]3C)cc2)CC1 [Example 11, 1-[4-(4-{3-[(2R)-2-methyl-pyrrolidin-1-yl]-propoxy}-phenoxy)-piperidin-1-yl]-ethanone hydrochloride salt] | 10 to 50 | HA release evoked by Compound 11 ([4]; simultaneous administration with donepezil): not changed; extracellular HA level [4, 7]: rapid and expressed increase; extracellular ACh ([5]; simultaneous administration of 0.5 mg/kg donepezil and 0.5 or 1 mg/kg Compound 11, MPFC and HC): supra-additive increase; ACh levels [5, 7]: No significant changes; plasma and brain levels [6]: did not change |
| C[C@@H]1CCCN1CCCOc1ccc(OC2CCN(C(=O)C3CCC3)CC2)cc1 [Example 12, cyclobutyl-[4-(4-{3-[(2R)-2-methylpyrrolidin-1-yl]-propoxy}-phenoxy)-piperidin-1-yl]-methanone hydrochloride salt] | < 10 | – |
| C[C@@H]1CCCN1CCCOc1ccc(OC2CCN(C(=O)C3(C)CC3)CC2)cc1 [Example 13, (1-methyl-cyclopropyl)-[4-(4-{3-[(2R)-2-methyl-pyrrolidin-1-yl]-propoxy}-phenoxy)-piperidin-1-yl]-methanone hydrochloride salt] | < 10 | – |
| CCOC(=O)N1CCC(Oc2ccc(OCCCN3CCC[C@H]3C)cc2)CC1 [Example 14, ethyl-4-(4-{3-[(2R)-2-methyl-pyrrolidin-1-yl]-propoxy}-phenoxy)-piperidine-1-carboxilate hydrochloride salt] | < 10 | – |
| CCNC(=O)N1CCC(Oc2ccc(OCCCN3CCC[C@H]3C)cc2)CC1 [Example 15, N-ethyl-4-(4-{3-[(2R)-2-methyl-pyrrolidin-1-yl]-propoxy}-phenoxy)-piperidine-1-carboxamide] | < 10 | – |
| CCN(C)C(=O)N1CCC(Oc2ccc(OCCCN3CCC[C@H]3C)cc2)CC1 [Example 16, N-ethyl-N-methyl-4-(4-{3-[(2R)-2-methyl-pyrrolidin-1-yl]-propoxy}-phenoxy)-piperidine-1-carboxamide hydrochloride salt] | < 10 | – |
